For orientation: IC50 means the point on the concentration scale where inhibition reaches its midpoint.

We go through 23 compounds from patent publication US10227323B2, “Glucosylceramide synthase inhibitors for the treatment of diseases” (BIOMARIN PHARMACEUTICAL INC., priority 2013, dated 2019).

The first test deals with T1, GCS (Canis lupus familiaris, UniProt A0A8I3MXG6).
T1 sequence (A0A8I3MXG6 1-394): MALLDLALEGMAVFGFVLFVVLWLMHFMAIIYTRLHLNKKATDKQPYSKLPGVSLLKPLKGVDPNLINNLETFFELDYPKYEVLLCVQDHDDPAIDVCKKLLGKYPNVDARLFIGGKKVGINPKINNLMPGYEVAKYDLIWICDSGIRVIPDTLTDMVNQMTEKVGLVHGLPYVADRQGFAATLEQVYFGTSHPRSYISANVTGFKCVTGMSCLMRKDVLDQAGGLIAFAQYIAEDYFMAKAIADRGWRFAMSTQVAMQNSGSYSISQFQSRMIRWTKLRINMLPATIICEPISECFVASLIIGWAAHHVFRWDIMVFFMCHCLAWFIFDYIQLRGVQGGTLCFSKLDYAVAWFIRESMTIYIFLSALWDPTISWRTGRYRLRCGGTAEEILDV
As to the kind of experiment: Assay 1: GCS Enzymatic Assay (MDCK cell lysate, C6-NBD-Ceramide, LC/MS). The note with it: Table 2; data marked by *. It is filed as biochemical, canine. The method, boiled down:
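LC/MS/MS measurement of glucosylceramide and NBD-ceramide after a 1 h, 37 °C reaction with 100 μM UDP-glucose and 10 μM C6-NBD-ceramide gave IC50s or percent inhibition.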
Take `O=C(N[C@H](CN1CCCC1)[C@H](O)c1cc(F)c2c(c1)OCCO2)C(=O)c1csc(-c2ccc(F)cc2)n1` [Compound 226, N-((1R,2R)-1-(8-fluoro-2,3-dihydrobenzo[b][1,4]dioxin-6-yl)-1-hydroxy-3-(pyrrolidin-1-yl)propan-2-yl)-2-(2-(4-fluorophenyl)thiazol-4-yl)-2-oxoacetamide]: the “% inhibition generated from Assay 1” value is “B* (the compound had a % inhibition of greater than or equal to about 3% but less than about 50%)”.

Regarding `O=C(N[C@H](CN1CCCC1)[C@H](O)c1ccc2c(c1)OCCO2)C(=O)c1csc(-c2ccc(F)cc2)n1` [Compound 229, N-((1R,2R)-1-(2,3-dihydrobenzo[b][1,4]dioxin-6-yl)-1-hydroxy-3-(pyrrolidin-1-yl)propan-2-yl)-2-(2-(4-fluorophenyl)thiazol-4-yl)-2-oxoacetamide], the “% inhibition generated from Assay 1” value is listed as “B* (the compound had a % inhibition of greater than or equal to about 3% but less than about 50%)”.

Take `O=C(N[C@H](CN1CCCC1)[C@H](O)c1ccc(OC2CC2)c(Cl)c1)C(=O)c1cccc(N2CCCCC2)c1` [Compound 238, N-((2R)-1-(3-chloro-4-cyclopropoxyphenyl)-1-hydroxy-3-(pyrrolidin-1-yl)propan-2-yl)-2-oxo-2-(3-(piperidin-1-yl)phenyl)acetamide]: the “% inhibition generated from Assay 1” value is listed as “B* (the compound had a % inhibition of greater than or equal to about 3% but less than about 50%)”.

With `Cn1ncc2ccc(C(=O)C(=O)N[C@H](CN3CCCC3)[C@H](O)c3cc(F)c4c(c3)OCCO4)cc21` [Compound 245, N-((1R,2R)-1-(8-fluoro-2,3-dihydrobenzo[b][1,4]dioxin-6-yl)-1-hydroxy-3-(pyrrolidin-1-yl)propan-2-yl)-2-(1-methyl-1H-indazol-6-yl)-2-oxoacetamide], the “% inhibition generated from Assay 1” value was “A* (the compound had a % inhibition of a percent inhibition of greater than or equal to about 50%)”.

With `O=C(N[C@H](CN1CCCC1)[C@H](O)c1ccc(OC2CC2)c(Cl)c1)C(F)(F)c1ccc(-c2ccc(F)cc2)nc1` [Compound 247, N-((1R,2R)-1-(3-chloro-4-cyclopropoxyphenyl)-1-hydroxy-3-(pyrrolidin-1-yl)propan-2-yl)-2,2-difluoro-2-(6-(4-fluorophenyl)pyridin-3-yl)acetamide], the “% inhibition generated from Assay 1” value is on record as “A* (the compound had a % inhibition of a percent inhibition of greater than or equal to about 50%)”.

The same test, now with this note: Table 2; data without asterisk; read-out: IC50 (nM) generated from Assay 1.
As for `O=C(N[C@H](CN1CCC1)[C@H](O)c1cc(F)c2c(c1)OCCO2)C(=O)c1ccc(N2CCCCC2)cc1` [Compound 227, N-((1R,2R)-3-(azetidin-1-yl)-1-(8-fluoro-2,3-dihydrobenzo[b][1,4]dioxin-6-yl)-1-hydroxypropan-2-yl)-2-oxo-2-(4-(piperidin-1-yl)phenyl)acetamide], the IC50 is less than 50 nM.

In the case of `O=C(N[C@H](CN1CCCC1)[C@H](O)c1cc(F)c2c(c1)OCCO2)C(=O)c1ccc(-c2ccccn2)cc1` [Compound 228, N-((1R,2R)-1-(8-fluoro-2,3-dihydrobenzo[b][1,4]dioxin-6-yl)-1-hydroxy-3-(pyrrolidin-1-yl)propan-2-yl)-2-oxo-2-(4-(pyridin-2-yl)phenyl)acetamide], the IC50 was less than 50 nM.

Regarding `O=C(N[C@H](CN1CCCC1)[C@H](O)c1cc(F)c2c(c1)OCCO2)C(=O)c1ccc(-c2ccc(F)cc2)s1` [Compound 230, N-((1R,2R)-1-(8-fluoro-2,3-dihydrobenzo[b][1,4]dioxin-6-yl)-1-hydroxy-3-(pyrrolidin-1-yl)propan-2-yl)-2-(5-(4-fluorophenyl)thiophen-2-yl)-2-oxoacetamide], the IC50 is less than 50 nM.

With `O=C(N[C@H](CN1CCCC1)[C@H](O)c1ccc(OC2CC2)c(Cl)c1)C(=O)c1ccc(N2CCCCC2)cc1` [Compound 231, N-((1R,2R)-1-(3-chloro-4-cyclopropoxyphenyl)-1-hydroxy-3-(pyrrolidin-1-yl)propan-2-yl)-2-oxo-2-(4-(piperidin-1-yl)phenyl)acetamide], the IC50 is less than 50 nM.

Turning to `Cn1ncc2ccc(-c3ccc(C(F)(F)C(=O)N[C@H](CN4CCCC4)[C@H](O)c4ccc(OC5CC5)c(Cl)c4)cc3)cc21` [Compound 232, N-((1R,2R)-1-(3-chloro-4-cyclopropoxyphenyl)-1-hydroxy-3-(pyrrolidin-1-yl)propan-2-yl)-2,2-difluoro-2-(4-(1-methyl-1H-indazol-6-yl)phenyl)acetamide], the IC50 was less than 50 nM.

`O=C(N[C@H](CN1CCCC1)[C@H](O)c1ccc(OC2CC2)c(Cl)c1)C(=O)c1ccc2sccc2c1` [Compound 233, 2-(benzo[b]thiophen-5-yl)-N-((1R,2R)-1-(3-chloro-4-cyclopropoxyphenyl)-1-hydroxy-3-(pyrrolidin-1-yl)propan-2-yl)-2-oxoacetamide]: the IC50 was less than 50 nM.

`O=C(N[C@H](CN1CCCC1)[C@H](O)c1cc(Cl)c2c(c1)OCCO2)C(=O)c1ccc(-c2ccc(F)cc2)cc1` [Compound 234, N-((1R,2R)-1-(8-chloro-2,3-dihydrobenzo[b][1,4]dioxin-6-yl)-1-hydroxy-3-(pyrrolidin-1-yl)propan-2-yl)-2-(4′-fluoro-[1,1′-biphenyl]-4-yl)-2-oxoacetamide]: the IC50 is less than 50 nM.

Consider `Cn1ncc2ccc(-c3ccc(C(F)(F)C(=O)N[C@H](CN4CCCC4)[C@H](O)c4ccc5c(c4)OCCO5)cc3)cc21` [Compound 235, N-((1R,2R)-1-(2,3-dihydrobenzo[b][1,4]dioxin-6-yl)-1-hydroxy-3-(pyrrolidin-1-yl)propan-2-yl)-2,2-difluoro-2-(4-(1-methyl-1H-indazol-6-yl)phenyl)acetamide], for which the IC50 is less than 50 nM.

Take `Cn1ncc2ccc(-c3ccc(C(F)(F)C(=O)N[C@H](CN4CCCC4)[C@H](O)c4cc(F)c5c(c4)OCCO5)cc3)cc21` [Compound 236, 2,2-difluoro-N-((1R,2R)-1-(8-fluoro-2,3-dihydrobenzo[b][1,4]dioxin-6-yl)-1-hydroxy-3-(pyrrolidin-1-yl)propan-2-yl)-2-(4-(1-methyl-1H-indazol-6-yl)phenyl)acetamide]: the IC50 is less than 50 nM.

Take `Cn1cc2ccc(-c3ccc(C(F)(F)C(=O)N[C@H](CN4CCCC4)[C@H](O)c4ccc(OC5CC5)c(Cl)c4)cc3)cc2n1` [Compound 237, N-((1R,2R)-1-(3-chloro-4-cyclopropoxyphenyl)-1-hydroxy-3-(pyrrolidin-1-yl)propan-2-yl)-2,2-difluoro-2-(4-(2-methyl-2H-indazol-6-yl)phenyl)acetamide]: the IC50 is less than 50 nM.

`O=C(N[C@H](CN1CCCC1)[C@H](O)c1cc(F)c2c(c1)OCCO2)C(F)(F)c1ccc(-c2ccc(F)cc2)s1` [Compound 239, 2,2-difluoro-N-((1R,2R)-1-(8-fluoro-2,3-dihydrobenzo[b][1,4]dioxin-6-yl)-1-hydroxy-3-(pyrrolidin-1-yl)propan-2-yl)-2-(5-(4-fluorophenyl)thiophen-2-yl)acetamide]: the IC50 was less than 50 nM.

For `Cn1cc2cc(-c3ccc(C(=O)C(=O)N[C@H](CN4CCCC4)[C@H](O)c4cc(F)c5c(c4)OCCO5)cc3)ccc2n1` [Compound 240, N-((1R,2R)-1-(8-fluoro-2,3-dihydrobenzo[b][1,4]dioxin-6-yl)-1-hydroxy-3-(pyrrolidin-1-yl)propan-2-yl)-2-(4-(2-methyl-2H-indazol-5-yl)phenyl)-2-oxoacetamide], the IC50 is less than 50 nM.

On to `O=C(N[C@H](CN1CCCC1)[C@H](O)c1ccc(OC2CC2)c(Cl)c1)C(=O)c1ccc(Oc2ccc(F)cc2)cc1` [Compound 241, N-((1R,2R)-1-(3-chloro-4-cyclopropoxyphenyl)-1-hydroxy-3-(pyrrolidin-1-yl)propan-2-yl)-2-(4-(4-fluorophenoxy)phenyl)-2-oxoacetamide], for which the IC50 is less than 50 nM.

As for `O=C(N[C@H](CN1CCCC1)[C@H](O)c1ccc(OC2CC2)c(Cl)c1)C(=O)c1cc2ccc(Cl)cc2s1` [Compound 242, N-((1R,2R)-1-(3-chloro-4-cyclopropoxyphenyl)-1-hydroxy-3-(pyrrolidin-1-yl)propan-2-yl)-2-(6-chlorobenzo[b]thiophen-2-yl)-2-oxoacetamide], the IC50 is less than 50 nM.

As to `Cn1ncc2ccc(-c3ccc(C(=O)C(=O)N[C@H](CN4CCCC4)[C@H](O)c4ccc(OC5CC5)c(Cl)c4)cc3)cc21` [Compound 243, N-((1R,2R)-1-(3-chloro-4-cyclopropoxyphenyl)-1-hydroxy-3-(pyrrolidin-1-yl)propan-2-yl)-2-(4-(1-methyl-1H-indazol-6-yl)phenyl)-2-oxoacetamide], the IC50 is less than 50 nM.

For `Cn1ncc2ccc(C(=O)C(=O)N[C@H](CN3CCCC3)[C@H](O)c3ccc(OC4CC4)c(Cl)c3)cc21` [Compound 244, N-((1R,2R)-1-(3-chloro-4-cyclopropoxyphenyl)-1-hydroxy-3-(pyrrolidin-1-yl)propan-2-yl)-2-(1-methyl-1H-indazol-6-yl)-2-oxoacetamide], the IC50 was less than 50 nM.

For `Cn1ncc2ccc(-c3ccc(C(=O)C(=O)N[C@H](CN4CCCC4)[C@H](O)c4cc(F)c5c(c4)OCCO5)cc3)cc21` [Compound 246, N-((1R,2R)-1-(8-fluoro-2,3-dihydrobenzo[b][1,4]dioxin-6-yl)-1-hydroxy-3-(pyrrolidin-1-yl)propan-2-yl)-2-(4-(1-methyl-1H-indazol-6-yl)phenyl)-2-oxoacetamide], the IC50 is less than 50 nM.

In the case of `O=C(N[C@H](CN1CCC1)[C@H](O)c1cc(F)c2c(c1)OCCO2)C(=O)c1cccc(Oc2ccc(F)cc2)c1` [Compound 248, N-((1R,2R)-3-(azetidin-1-yl)-1-(8-fluoro-2,3-dihydrobenzo[b][1,4]dioxin-6-yl)-1-hydroxypropan-2-yl)-2-(3-(4-fluorophenoxy)phenyl)-2-oxoacetamide], the half-inhibitory concentration (IC50) is less than 50 nM.
